For experiment [1], the system named is MDA-MB-231. In words: Antiproliferative activity against estrogen receptor negative human MDA-MB-231 cells assessed as inhibition of cell viability by MTT assay. Type of experiment: functional, cell-based. (Tetrazolium assays rely on reduction of a dye to a coloured formazan, in cell work by metabolically active cells.)
The subject of experiment [2] is MCF7. In words: Antiproliferative activity against estrogen receptor positive human MCF7 cells assessed as inhibition of cell viability by MTT assay. In kind it is functional, cell-based.
The test system of experiment [3] is MCF7. In words: Induction of cell cycle arrest in estrogen receptor positive human MCF7 cells assessed as accumulation of cells at G0/G1 phase at 13.4 uM incubated for 24 hrs (reference value: 60.49%). In kind it is functional.
Experiment [4] deals with MCF7. Kind of experiment: Induction of cell cycle arrest in estrogen receptor positive human MCF7 cells assessed as accumulation of cells at S phase at 13.4 uM incubated for 24 hrs (reference value: 20.84%). In kind it is functional.
The subject of experiment [5] is MCF7. Kind of experiment: Induction of cell cycle arrest in estrogen receptor positive human MCF7 cells assessed as accumulation of cells at G2/M phase at 13.4 uM incubated for 24 hrs (reference value: 19.32%). In kind it is functional.
The subject of experiment [6] is MDA-MB-231. In words: Induction of cell cycle arrest in estrogen receptor negative human MDA-MB-231 cells assessed as accumulation of cells at G0/G1 phase at 9.2 uM incubated for 24 hrs (reference value: 61.44%). In kind it is functional.
The subject of experiment [7] is MDA-MB-231. Kind of experiment: Induction of cell cycle arrest in estrogen receptor […] human MDA-MB-231 cells assessed as accumulation of cells at S phase at 9.2 uM incubated for 24 hrs (reference value: 25.49%). In kind it is functional.
In experiment [8] the test system is MDA-MB-231. Kind of experiment: Induction of cell cycle arrest in estrogen receptor […] human MDA-MB-231 cells assessed as accumulation of cells at G2/M phase at 9.2 uM incubated for 24 hrs (reference value: 13.64%). Type of experiment: functional.
Experiment [9] has as its system MDA-MB-231. In words: Induction of apoptosis in human MDA-MB-231 cells assessed as inhibition of PARP level. In kind it is functional, cell-based.
Experiment [10] has as its system MCF7. Kind of experiment: Induction of apoptosis in human MCF7 cells assessed as inhibition of PARP level. Type of experiment: functional, cell-based.
Experiment [11] relates to MCF7. In words: Induction of cell cycle arrest in estrogen receptor positive human MCF7 cells assessed as accumulation of cells at G0/G1 phase at 11uM incubated for 24 hrs (reference value: 60.49%). Type of experiment: functional.
For experiment [12], the system named is MCF7. Kind of experiment: Induction of cell cycle arrest in estrogen receptor positive human MCF7 cells assessed as accumulation of cells at S phase at 11 uM incubated for 24 hrs (reference value: 20.84%). In kind it is functional.
The test system of experiment [13] is MCF7. Kind of experiment: Induction of cell cycle arrest in estrogen receptor positive human MCF7 cells assessed as accumulation of cells at G2/M phase at 11 uM incubated for 24 hrs (reference value: 19.32%). Type of experiment: functional.
Experiment [14] deals with MDA-MB-231. Kind of experiment: Induction of cell cycle arrest in estrogen receptor negative human MDA-MB-231 cells assessed as accumulation of cells at G0/G1 phase at 9 uM incubated for 24 hrs (reference value: 61.44%). In kind it is functional.
Experiment [15] has as its system MDA-MB-231. Kind of experiment: Induction of cell cycle arrest in estrogen receptor […] human MDA-MB-231 cells assessed as accumulation of cells at S phase at 9 uM incubated for 24 hrs (reference value: 25.49%). Type of experiment: functional.
Experiment [16] has as its system MDA-MB-231. In words: Induction of cell cycle arrest in estrogen receptor […] human MDA-MB-231 cells assessed as accumulation of cells at G2/M phase at 9 uM incubated for 24 hrs (reference value: 13.64%). Type of experiment: functional.
Experiment [17] has as its system MCF7. In words: Induction of cell cycle arrest in estrogen receptor positive human MCF7 cells assessed as accumulation of cells at G0/G1 phase at 12.9 uM incubated for 24 hrs (reference value: 60.49%). Type of experiment: functional.
Experiment [18] concerns MCF7. Kind of experiment: Induction of cell cycle arrest in estrogen receptor positive human MCF7 cells assessed as accumulation of cells at S phase at 12.9 uM incubated for 24 hrs (reference value: 20.84%). Type of experiment: functional.
Experiment [19] concerns MCF7. In words: Induction of cell cycle arrest in estrogen receptor positive human MCF7 cells assessed as accumulation of cells at G2/M phase at 12.9 uM incubated for 24 hrs (reference value: 19.32%). Type of experiment: functional.
The test system of experiment [20] is MDA-MB-231. Kind of experiment: Induction of cell cycle arrest in estrogen receptor negative human MDA-MB-231 cells assessed as accumulation of cells at G0/G1 phase at 8.8 uM incubated for 24 hrs (reference value: 61.44%). Type of experiment: functional.
For experiment [21], the system named is MDA-MB-231. Kind of experiment: Induction of cell cycle arrest in estrogen receptor […] human MDA-MB-231 cells assessed as accumulation of cells at S phase at 8.8 uM incubated for 24 hrs (reference value: 25.49%). In kind it is functional.
In experiment [22] the test system is MDA-MB-231. Kind of experiment: Induction of cell cycle arrest in estrogen receptor […] human MDA-MB-231 cells assessed as accumulation of cells at G2/M phase at 8.8 uM incubated for 24 hrs (reference value: 13.64%). In kind it is functional.
Experiment [23] deals with MCF7. Kind of experiment: Induction of cell cycle arrest in estrogen receptor positive human MCF7 cells assessed as accumulation of cells at G0/G1 phase at 15 uM incubated for 24 hrs (reference value: 60.49%). In kind it is functional.
Experiment [24] relates to MCF7. Kind of experiment: Induction of cell cycle arrest in estrogen receptor positive human MCF7 cells assessed as accumulation of cells at S phase at 15 uM incubated for 24 hrs (reference value: 20.84%). Type of experiment: functional.
Experiment [25] concerns MCF7. In words: Induction of cell cycle arrest in estrogen receptor positive human MCF7 cells assessed as accumulation of cells at G2/M phase at 15 uM incubated for 24 hrs (reference value: 19.32%). Type of experiment: functional.

Active and inactive are the calls of the source. No cut-off for these calls is given here.

With `COc1ccc2c(c1)OC(C)(C)CC2C(c1ccccc1)c1ccccc1OCCN1CCCC1` (stereo not given), the results for the IC50 with MDA-MB-231 [1] and in the experiment on MCF7 [2] were 20 µM and 25 µM, respectively.

As for `COc1ccc2c(c1)OC(C)(C)CC2C(c1ccccc1)c1ccc(OCC(C)N(C)C)cc1` (stereo not given), the results for the IC50 with MDA-MB-231 [1] and in the experiment with MCF7 [2] were 11.3 µM and 15.2 µM, respectively.

In the case of `COc1ccc2c(c1)OC(C)(C)C/C2=C(/c1ccc(O)cc1)c1ccccc1F`, the IC50 with MDA-MB-231 [1] came to 17 µM; in the experiment with MCF7 [2], 22 µM.

For `COc1ccc2c(c1)OC(C)(C)CC2C(c1ccccc1)c1ccc(OCCN(C)C)cc1` (stereo not given), the result in the experiment with MDA-MB-231 [1] and in the experiment with MCF7 [2] was inactive.

As for `COc1ccc2c(c1)OC(C)(C)CC2C(c1ccccc1)c1ccccc1OCCN1CCCCC1` (stereo not given), the values for the IC50 in the experiment with MDA-MB-231 [1] and in the experiment with MCF7 [2] were 9.2 µM and 13.4 µM, respectively. Moreover, the Activity amounted to 71.33% in the experiment on MCF7 [3]; 11.86% with MCF7 [4]; 17.14% in the experiment on MCF7 [5]; 74.38% in the experiment with MDA-MB-231 [6]; 13.75% with MDA-MB-231 [7]; 12.12% with MDA-MB-231 [8]. Besides, the result with MDA-MB-231 [9] and in the experiment on MCF7 [10] was Active.

For `COc1ccc2c(c1)OC(C)(C)C/C2=C(\c1ccccc1)c1ccccc1O`, the IC50 with MDA-MB-231 [1] is 12 µM; in the experiment with MCF7 [2], 16 µM.

For `COc1ccc2c(c1)OC(C)(C)C/C2=C(\c1ccccc1)c1ccccc1OCC(C)N(C)C` (stereo not given), the IC50 in the experiment on MDA-MB-231 [1] was determined as 9 µM; with MCF7 [2], 11 µM. In addition, the Activity with MCF7 [11] came to 58.31%; with MCF7 [12] it was 20%; in the experiment on MCF7 [13], 22.64%; with MDA-MB-231 [14], 66.73%; with MDA-MB-231 [15], 21.11%; in the experiment with MDA-MB-231 [16], 12.94%. Also, the outcome with MDA-MB-231 [9] and with MCF7 [10] was Active.

As for `COc1ccc2c(c1)OC(C)(C)CC2C(c1ccccc1)c1ccc(O)cc1` (stereo not given), the figures for the IC50 in the experiment on MDA-MB-231 [1] and with MCF7 [2] were 9.5 µM and 12.5 µM, respectively.

For the compound `COc1ccc2c(c1)OC(C)(C)CC2C(c1ccccc1)c1ccc(OCCN2CCCCC2)cc1` (stereo not given), the IC50 in the experiment with MDA-MB-231 [1] came out at 8.5 µM; in the experiment on MCF7 [2] it was 13.3 µM.

On to `COc1ccc2c(c1)OC(C)(C)C/C2=C(\c1ccccc1)c1ccc(O)cc1`, for which the results for the IC50 with MDA-MB-231 [1] and in the experiment with MCF7 [2] were 9.5 µM and 12.5 µM, respectively.

For `COc1ccc2c(c1)OC(C)(C)C/C2=C(\c1ccccc1)c1ccccc1OCCN1CCCC1`, the results for the IC50 with MDA-MB-231 [1] and with MCF7 [2] were 13 µM and 19 µM, respectively.

Turning to `CC/C(=C(\c1ccccc1)c1ccc(OCCN(C)C)cc1)c1ccccc1` [TAMOXIFEN], the IC50 with MDA-MB-231 [1] was determined as 9.96 µM.

As to `CCN(CC)CCOc1ccc(C(c2ccccc2)C2CC(C)(C)Oc3cc(OC)ccc32)cc1` (stereo not given), the IC50 in the experiment on MDA-MB-231 [1] worked out at 11.5 µM; in the experiment with MCF7 [2] it was 15.4 µM.

On to `COc1ccc2c(c1)OC(C)(C)CC2C(c1ccccc1)c1ccc(OCCN2CCCC2)cc1` (stereo not given), for which the values for the IC50 with MDA-MB-231 [1] and in the experiment on MCF7 [2] were 9.6 µM and 13.3 µM, respectively.

As to `COc1ccc2c(c1)OC(C)(C)CC2C(c1ccccc1)c1ccccc1OCCN(C)C` (stereo not given), the IC50 in the experiment on MDA-MB-231 [1] came out at 8.5 µM; with MCF7 [2], 13.5 µM.

For `CCN(CC)CCOc1ccccc1/C(=C1/CC(C)(C)Oc2cc(OC)ccc21)c1ccccc1`, the IC50 in the experiment with MDA-MB-231 [1] came out at 12 µM; in the experiment with MCF7 [2], 15 µM.

Consider `COc1ccc2c(c1)OC(C)(C)C/C2=C(\c1ccccc1)c1ccccc1OCCN1CCCCC1`, for which the figures for the IC50 in the experiment on MDA-MB-231 [1] and with MCF7 [2] were 12 µM and 16 µM, respectively.

Regarding `COc1ccc2c(c1)OC(C)(C)CC2C(c1ccc(OCCN(C)C)cc1)c1ccccc1F` (stereo not given), the IC50 with MDA-MB-231 [1] worked out at 19 µM; in the experiment with MCF7 [2], 24 µM.

As for `COc1ccc2c(c1)OC(C)(C)CC2C(c1ccccc1)c1ccccc1OCC(C)N(C)C` (stereo not given), the IC50 in the experiment with MDA-MB-231 [1] came out at 11 µM; in the experiment on MCF7 [2], 14 µM.

`COc1ccc2c(c1)OC(C)(C)C/C2=C(\c1ccccc1)c1ccccc1OCCN(C)C`: the IC50 in the experiment with MDA-MB-231 [1] turned out to be 8.8 µM; with MCF7 [2], 12.9 µM. The Activity in the experiment with MCF7 [17] was determined as 63.58%; with MCF7 [18], 17.85%; in the experiment on MCF7 [19], 19.26%; with MDA-MB-231 [20] it was 70.51%; in the experiment with MDA-MB-231 [21] it was 16.79%; in the experiment on MDA-MB-231 [22] it was 13.2%. The outcome in the experiment on MDA-MB-231 [9] and in the experiment with MCF7 [10] was Active.

With `COc1ccc2c(c1)OC(C)(C)CC2C(c1ccccc1)c1ccccc1O` (stereo not given), the results for the IC50 in the experiment on MDA-MB-231 [1] and in the experiment on MCF7 [2] were 10.4 µM and 13.6 µM, respectively.

For `CCN(CC)CCOc1ccccc1C(c1ccccc1)C1CC(C)(C)Oc2cc(OC)ccc21` (stereo not given), the IC50 was 9 µM with MDA-MB-231 [1] and 15 µM with MCF7 [2]. Further, the Activity in the experiment on MCF7 [23] was determined as 61.57%; in the experiment with MCF7 [24] it was 18.9%; with MCF7 [25], 20.33%; in the experiment with MDA-MB-231 [14], 75.26%; with MDA-MB-231 [15], 13.26%; in the experiment with MDA-MB-231 [16] it was 11.71%. Also, the result with MDA-MB-231 [9] and in the experiment on MCF7 [10] was Active.

As usually defined, the IC50 is the concentration that inhibits the measured activity by half.

The values are drawn from ChEMBL document CHEMBL5576051, “Synthesis of 2,2-dimethyl-chroman-based stereochemically flexible and constrained anti-breast cancer agents” (Bioorg Med Chem Lett, 2024).
